In patent US10874670B2, “Substituted fused heteroaromatic compounds as kinase inhibitors and the use thereof” (IMPACT THERAPEUTICS, INC., priority 2017, dated 2020):

Key:
[1] = test system: human breast cancer cell MDA-MB-468; test: MTT assay, growth of MDA-MB-468 cells; type: cell-based; conditions: 7 days, MTT
Method: Inhibitory Effects of N,N-dimethyl-3-(4-(1-(tetrahydro-2H-pyran-4-yl)-[1,2,4]triazolo[4,3-a]quinoxalin-8-yl)phenoxy)propan-1-amine and its Analogues on the Growth of Human Breast Cancer Cell MDA-MB-468 were Determined by MTT Assay
MDA-MB-468 cells were digested by trypsinase, centrifuged at 800 rpm for 5 minutes, the supernatant was discarded, resuspended with fresh medium (RPMI 1640 medium+10% FBS) and counted. The cells were seeded into 96-well cell culture plate with appropriate cell density and incubated overnight in a 37° C. 5% CO2 incubator. The stock solutions of the tested compound and the reference compound AZD0156 were serially diluted to 8 concentrations by DMSO at the ratios of 1:3 and 1:10, respectively: the first concentration was 100 μM or 1 μM, and the last concentration was negative control of DMSO (0 μM, the final concentration of DMSO was 1%). 5 μL of each concentration was added to 120 μL of medium (25 times diluted) and mixed by shaking. The overnight cells were taken and the culture medium was removed, 195 μL of fresh medium was added to each well, and 5 μL of diluted medium containing the corresponding concentration of the tested sample was added respectively, and the culture plate was then placed in the 5% CO2 cell culture incubator at 37° C. for 7 days (On the fourth day, the medium containing drugs was removed and fresh medium containing drugs was added for continuous cultivation). After removing the original solution, 100 μL of fresh serum-free DMEM medium containing MTT (0.5 mg/mL) was added to each well, the culture was continued. After 4 hours, the original solution was removed, 100 μL of DMSO was added into each well, the 96-well plates were shaken away from light for 10 minutes and placed in a multi-function reader to read the absorbance at the wavelength of 552/630/690 nm. GraphPad Prism 6.0 was used to analyze the data. The inhibitory activity of compounds on cell proliferation was plotted based on cell viability and compound concentration. The IC50 value was fitted by a sigmoidal dose response curve equation Y=100/(1+10^(Log C−Log IC50)), where C was the concentration of compound.
Table 4 summarizes the inhibitory effects of compounds on the growth of human breast cancer cell MDA-MB-468 (IC50).

[2] = test system: human colon cancer cell SW620; test: MTT assay, growth of SW620 cells, compounds combined with CPT-11; type: cell-based; conditions: combined with CPT-11 (205 nM medium), 5 days, MTT
How it was run: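 SW620 cells in RPMI 1640/10% FBS were exposed to 8-point compound dilutions (top 10 or 1 μM, 1% DMSO final) plus CPT-11 (205 nM in added medium) for 5 days at 37 °C. Viability by MTT (0.5 mg/mL, 4 h) absorbance; IC50 from sigmoidal fit.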

[3] = target: ATM enzyme (human) (Homo sapiens, UniProt Q13315); test: ATM kinase assay (HTRF, GST-cMyc-p53 substrate); type: biochemical; conditions: for inhibition at 0.01 µM: C 0.01 μm (final concentration of compound); for inhibition at 0.1 µM: C 0.1 μm (final concentration of compound)
Chain of ATM enzyme (human) (Q13315 whole entry): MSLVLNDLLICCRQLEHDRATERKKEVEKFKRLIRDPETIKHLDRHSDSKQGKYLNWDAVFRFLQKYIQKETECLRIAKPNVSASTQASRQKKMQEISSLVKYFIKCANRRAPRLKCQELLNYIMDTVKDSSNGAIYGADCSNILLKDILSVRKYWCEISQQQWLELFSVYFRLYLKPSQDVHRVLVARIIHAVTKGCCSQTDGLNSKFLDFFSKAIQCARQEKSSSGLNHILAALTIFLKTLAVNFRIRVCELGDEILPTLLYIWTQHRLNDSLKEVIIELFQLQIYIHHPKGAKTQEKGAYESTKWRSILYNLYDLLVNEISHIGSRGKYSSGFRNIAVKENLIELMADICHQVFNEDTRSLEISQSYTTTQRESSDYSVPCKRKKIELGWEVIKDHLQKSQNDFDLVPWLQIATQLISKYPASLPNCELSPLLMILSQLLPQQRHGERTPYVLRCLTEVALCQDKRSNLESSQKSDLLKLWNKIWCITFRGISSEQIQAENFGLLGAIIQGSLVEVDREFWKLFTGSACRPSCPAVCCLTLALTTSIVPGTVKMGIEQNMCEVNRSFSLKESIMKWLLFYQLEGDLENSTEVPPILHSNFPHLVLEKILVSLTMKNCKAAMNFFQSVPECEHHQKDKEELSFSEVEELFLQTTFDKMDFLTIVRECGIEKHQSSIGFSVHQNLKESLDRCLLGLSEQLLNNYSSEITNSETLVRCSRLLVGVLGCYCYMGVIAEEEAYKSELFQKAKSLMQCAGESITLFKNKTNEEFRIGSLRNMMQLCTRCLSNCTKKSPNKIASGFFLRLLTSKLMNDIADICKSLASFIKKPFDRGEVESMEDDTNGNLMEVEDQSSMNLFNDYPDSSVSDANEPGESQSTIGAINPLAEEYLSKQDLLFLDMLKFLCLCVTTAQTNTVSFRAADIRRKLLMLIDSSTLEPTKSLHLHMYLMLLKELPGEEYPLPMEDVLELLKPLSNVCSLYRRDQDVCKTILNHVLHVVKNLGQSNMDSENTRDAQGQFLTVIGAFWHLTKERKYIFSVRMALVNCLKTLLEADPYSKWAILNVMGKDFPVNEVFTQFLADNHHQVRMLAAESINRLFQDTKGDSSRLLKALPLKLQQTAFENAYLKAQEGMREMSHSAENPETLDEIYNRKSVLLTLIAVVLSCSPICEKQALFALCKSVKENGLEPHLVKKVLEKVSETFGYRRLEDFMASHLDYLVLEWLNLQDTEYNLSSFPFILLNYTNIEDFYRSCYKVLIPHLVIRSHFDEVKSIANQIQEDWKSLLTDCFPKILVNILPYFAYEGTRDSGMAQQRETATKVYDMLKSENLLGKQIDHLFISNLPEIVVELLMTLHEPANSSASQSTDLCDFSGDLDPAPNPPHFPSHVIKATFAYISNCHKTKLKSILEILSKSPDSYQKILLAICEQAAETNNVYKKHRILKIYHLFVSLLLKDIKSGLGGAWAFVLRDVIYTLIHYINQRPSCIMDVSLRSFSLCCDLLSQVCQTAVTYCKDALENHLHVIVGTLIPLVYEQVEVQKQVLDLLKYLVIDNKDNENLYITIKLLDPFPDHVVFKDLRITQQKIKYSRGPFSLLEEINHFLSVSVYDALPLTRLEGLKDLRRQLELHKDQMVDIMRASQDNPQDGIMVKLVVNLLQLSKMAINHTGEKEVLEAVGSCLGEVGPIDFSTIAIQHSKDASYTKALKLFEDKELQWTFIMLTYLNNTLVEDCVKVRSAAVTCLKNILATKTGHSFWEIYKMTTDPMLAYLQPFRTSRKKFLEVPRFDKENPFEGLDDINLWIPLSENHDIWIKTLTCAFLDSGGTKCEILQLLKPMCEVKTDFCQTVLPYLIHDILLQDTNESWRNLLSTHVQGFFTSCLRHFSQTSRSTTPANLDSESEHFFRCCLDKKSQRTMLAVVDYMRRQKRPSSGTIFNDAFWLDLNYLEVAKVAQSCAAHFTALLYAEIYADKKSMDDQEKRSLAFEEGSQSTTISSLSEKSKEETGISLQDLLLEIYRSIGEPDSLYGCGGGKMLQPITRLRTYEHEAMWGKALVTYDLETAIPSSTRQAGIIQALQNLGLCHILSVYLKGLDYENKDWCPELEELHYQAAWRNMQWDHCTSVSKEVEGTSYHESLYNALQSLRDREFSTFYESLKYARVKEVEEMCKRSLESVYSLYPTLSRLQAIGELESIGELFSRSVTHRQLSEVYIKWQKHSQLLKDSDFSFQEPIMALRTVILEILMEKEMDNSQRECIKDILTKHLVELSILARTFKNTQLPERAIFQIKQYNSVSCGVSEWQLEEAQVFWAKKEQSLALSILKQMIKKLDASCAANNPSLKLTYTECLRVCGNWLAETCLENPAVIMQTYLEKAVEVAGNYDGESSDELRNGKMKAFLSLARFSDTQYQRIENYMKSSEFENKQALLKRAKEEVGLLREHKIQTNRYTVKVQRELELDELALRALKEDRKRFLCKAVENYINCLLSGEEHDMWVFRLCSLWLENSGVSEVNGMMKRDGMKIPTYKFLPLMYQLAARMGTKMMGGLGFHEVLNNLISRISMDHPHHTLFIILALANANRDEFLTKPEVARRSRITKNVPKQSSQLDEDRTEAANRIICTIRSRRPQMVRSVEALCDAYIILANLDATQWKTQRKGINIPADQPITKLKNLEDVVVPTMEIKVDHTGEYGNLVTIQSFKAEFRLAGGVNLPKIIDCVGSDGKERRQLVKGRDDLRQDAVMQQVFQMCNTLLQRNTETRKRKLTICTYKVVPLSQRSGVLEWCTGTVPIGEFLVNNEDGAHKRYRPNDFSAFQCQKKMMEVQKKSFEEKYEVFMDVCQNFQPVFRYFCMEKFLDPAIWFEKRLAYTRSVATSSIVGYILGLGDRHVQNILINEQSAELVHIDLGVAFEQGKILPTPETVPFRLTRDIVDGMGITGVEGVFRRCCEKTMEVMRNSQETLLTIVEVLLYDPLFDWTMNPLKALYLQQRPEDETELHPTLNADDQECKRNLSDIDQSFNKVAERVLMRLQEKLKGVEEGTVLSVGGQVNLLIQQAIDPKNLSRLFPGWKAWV
Method: In Vitro Inhibition of ATM by N,N-dimethyl-3-(4-(1-(tetrahydro-2H-pyran-4-yl)-[1,2,4]triazolo[4,3-a]quinoxalin-8-yl)phenoxy)propan-1-amine and its Analogues was Determined by ATM Kinase Assay
The reaction was initiated by the addition of a Mg/ATP mixture and incubation for 30 minutes at room temperature, the reaction was quenched by the addition of a stop solution containing EDTA. Finally, the detection buffer containing the d2-labeled anti-GST monoclonal antibody and the europium-labeled anti-phospho p53 (Ser15) antibody was added. The plate was then read in time resolved fluorescence mode and the homogeneous time resolved fluorescence (HTRF) signal was determined according to the equation: HTRF=10000×(Em665nm/Em620nm). Each compound sample was repeated in duplicate. The experiment negative control was all components except of the ATM enzyme and the positive control contained all components. All reactions were quenched by adding EDTA.
ATM kinase inhibition was detected by using the method described above. The curve equation for calculating IC50 value is as follows:
[formula] • wherein, C is the concentration of compound and D is the slope factor.

[4] = Homo sapiens, MDA-MB-468, 168 h
[5] = 0.5 h, read-out: Inh (%) of ATM kinase
[6] = 0.5 h, C 1 μm (final concentration of compound), read-out: Inh (%) of ATM kinase

IC50 [1, 4] [nM] | IC50 ([2]; Homo sapiens, SW-620, 120 h) [nM] | inhibition at 0.01 µM [3, 5] [%] | inhibition at 0.1 µM [3, 5] [%] | inhibition at 1 µM [3, 6] [%] | inhibition at 0.001 µM ([3]; 0.5 h, C 0.001 μm (final concentration of compound), read-out: Inh (%) of ATM kinase) [%] | SMILES | IC50 [1] [nM] | IC50 [2] [nM] | Inh (%) of ATM kinase ([3]; C 1 μm (final concentration of compound)) [%]
122 | 144 | 79 | 99 | 100 | – | CN(C)CCCOc1ccc(-c2ccc3ncc4nnc(N5CCCCC5)n4c3c2)cc1 [Example 20, N,N-dimethyl-3-(4-(1-(piperidin-1-yl)-[1,2,4]triazolo[4,3-a]quinoxalin-8-yl)phenoxy)propan-1-amine] | – | – | –
422 | 413 | – | – | 100 | – | CN(C)CCCOc1ccc(-c2ccc3ncc4nnc(N5CCN(C)CC5)n4c3c2)cc1 [Example 22, N,N-dimethyl-3-(4-(1-(4-methylpiperazin-1-yl)-[1,2,4]triazolo[4,3-a]quinoxalin-8-yl)phenoxy)propan-1-amine] | – | – | –
> 100000 | > 100000 | – | – | 0 | – | CN(C)Cc1ccc(-c2cc3c(cn2)ncc2nnc(C4CCOCC4)n23)cc1 [Example 68, N,N-dimethyl-1-(4-(1-(tetrahydro-2H-pyran-4-yl)pyrido[3,4-e][1,2,4]triazolo[4,3-a]pyrazin-8-yl)phenyl)methanamine] | – | – | –
161 | 184 | 62 | 93 | 100 | – | CN(C)C1CCN(c2ccc(-c3ccc4ncc5nnc(C6CCOCC6)n5c4c3)c(F)c2)CC1 [Example 48, 1-(3-fluoro-4-(1-(tetrahydro-2H-pyran-4-yl)-[1,2,4]triazolo[4,3-a]quinoxalin-8-yl)phenyl)-N,N-dimethylpiperidin-4-amine] | – | – | –
335 | 262 | 51 | 92 | 100 | – | CN(C)CCCOc1ccc(-c2ccc3ncc4nnc(C5CCOCC5)n4c3n2)cc1 [Example 31, N,N-dimethyl-3-(4-(9-(tetrahydro-2H-pyran-4-yl)pyrido[3,2-e][1,2,4]triazolo[4,3-a]pyrazin-2-yl)phenoxy)propan-1-amine] | – | – | –
> 100000 | > 100000 | – | – | 19 | – | CN(C)C1CCN(c2ccc(-c3cc4c(cn3)ncc3nnc(C5CCOCC5)n34)cc2)CC1 [Example 71, N,N-dimethyl-1-(4-(1-(tetrahydro-2H-pyran-4-yl)pyrido[3,4-e][1,2,4]triazolo[4,3-a]pyrazin-8-yl)phenyl)piperidin-4-amine] | – | – | –
– | – | – | – | – | – | CN(C)CCCOc1ccc(-c2ccc3ncc4c(c3c2)n(C2CCOCC2)c(=O)n4C)cn1 [AZD0156, reference compound] | 10.9 | 10 | 100
523 | > 10000 | – | – | 98 | – | CN(C)C1CCN(c2ccc(-c3ccc4ncc5nnc(C6CCOCC6)n5c4c3)nc2)CC1 [Example 52, N,N-dimethyl-1-(6-(1-(tetrahydro-2H-pyran-4-yl)-[1,2,4]triazolo[4,3-a]quinoxalin-8-yl)pyridin-3-yl)piperidin-4-amine] | – | – | –
> 100000 | > 100000 | 7 | 47 | 96 | – | CN(C)CCCOc1ccc(-c2ccc3ncc4nnc(C5CCOCC5)n4c3c2)nc1 [Example 5, N,N-dimethyl-3-((6-(1-(tetrahydro-2H-pyran-4-yl)-[1,2,4]triazolo[4,3-a]quinoxalin-8-yl)pyridin-3-yl)oxy)propan-1-amine] | – | – | –
> 100000 | > 100000 | – | – | 19 | – | c1ccc(-c2cc3c(cn2)ncc2nnc(C4CCOCC4)n23)cc1 [Example 67, 8-phenyl-1-(tetrahydro-2H-pyran-4-yl)pyrido[3,4-e][1,2,4]triazolo[4,3-a]pyrazine] | – | – | –
> 100000 | > 10000 | – | – | 4 | – | CNC1CCN(c2ccc(-c3cc4c(cn3)ncc3nnc(C5CCOCC5)n34)cc2)CC1 [Example 70, N-methyl-1-(4-(1-(tetrahydropyran-4-yl)pyrido[3,4-e][1,2,4]triazolo[4,3-a]pyrazin-8-yl)phenyl)piperidin-4-amine] | – | – | –
> 100000 | > 100000 | – | – | 34 | – | CN(C)C1CCC(c2ccc(-c3ccc4ncc5nnc(C6CCOCC6)n5c4c3)cc2)CC1 (stereo not drawn) [Example 18, N,N-dimethyl-4-(4-(1-(tetrahydro-2H-pyran-4-yl)-[1,2,4]triazolo[4,3-a]quinoxalin-8-yl)phenyl)cyclohexan-1-amine] | – | – | –
452 | 470 | 43 | 84 | 99 | – | CN(C)CCCOc1ccc(-c2ccc3ncc4nnc(CN5CCOCC5)n4c3c2)cc1 [Example 27, N,N-dimethyl-3-(4-(1-(morpholinomethyl)-[1,2,4]triazolo[4,3-a]quinoxalin-8-yl)phenoxy)propan-1-amine] | – | – | –
4710 | 4250 | – | – | 18 | – | CN(C)CCCOc1ccc(-c2ccc3ncc4cnc(C5CCOCC5)n4c3c2)cc1 [Example 37, N,N-dimethyl-3-(4-(1-(tetrahydro-2H-pyran-4-yl)imidazo[1,5-a]quinoxalin-8-yl)phenoxy)propan-1-amine] | – | – | –
860 | 1210 | 34 | 81 | 97 | – | CN(C)CCCOc1ccc(-c2ccc3ncc4nnc(-c5c[nH]cn5)n4c3c2)cc1 [Example 29, N,N-dimethyl-3-(4-(1-(1H-imidazol-4-yl)-[1,2,4]triazolo[4,3-a]quinoxalin-8-yl)phenoxy)propan-1-amine] | – | – | –
262 | 818 | – | – | 100 | – | CN(C)C1CCN(c2ccc(-c3ccc4ncc5nnc(C6CCOCC6)n5c4n3)cn2)CC1 [Example 76, N,N-dimethyl-1-(5-(9-(tetrahydro-2H-pyran-4-yl)pyrido[3,2-e][1,2,4]triazolo[4,3-a]pyrazin-2-yl)pyridin-2-yl)piperidin-4-amine] | – | – | –
> 100000 | > 10000 | – | – | 80 | – | Cc1cc(N2CCC(N(C)C)CC2)ccc1-c1ccc2ncc3nnc(C4CCOCC4)n3c2c1 [Example 50, N,N-dimethyl-1-(3-methyl-4-(1-(tetrahydro-2H-pyran-4-yl)-[1,2,4]triazolo[4,3-a]quinoxalin-8-yl)phenyl)piperidin-4-amine] | – | – | –
3680 | > 10000 | – | – | 74 | – | CN(C)C1CCN(c2ccc(-c3ccc4ncc5nnc(C6CCOCC6)n5c4c3)c(C(F)(F)F)c2)CC1 [Example 51, N,N-dimethyl-1-(4-(1-(tetrahydro-2H-pyran-4-yl)-[1,2,4]triazolo[4,3-a]quinoxalin-8-yl)-3-(trifluoromethyl)phenyl)piperidin-4-amine] | – | – | –
68.8 | 47.5 | 89 | 100 | 100 | 38 | C[C@@H]1CN(c2nnc3cnc4ccc(-c5ccc(N6CCC(N(C)C)CC6)cc5)cc4n23)C[C@H](C)N1C [Example 58, N,N-dimethyl-1-(4-(1-((3S,5R)-3,4,5-trimethylpiperazin-1-yl)-[1,2,4]triazolo[4,3-a]quinoxalin-8-yl)phenyl)piperidin-4-amine] | – | – | –
